# Laboratory results published in PMC6500982 (Cancer Science, 2019).
# Legend:
# [1] = B‐cell NHL, European phase I study; cited from earlier work
# [2] = Pharmacokinetics of plasma tirabrutinib, Cycle 1 Day 1 and Day 28; type: in vivo, human
compound,measurement,setting,value
CC#CC(=O)N1CC[C@@H](n2c(=O)n(-c3ccc(Oc4ccccc4)cc3)c3c(N)ncnc32)C1 [tirabrutinib],Tolerability observed up to (dose),[1],up to 480 mg once daily (QD)
same,Pharmacokinetics linearity,[2]; 160 mg QD to 300 mg BID,linear
same,Increase in Cmax and AUC with dose,[2]; 160 to 480 mg QD,increased in a dose‐dependent manner
same,"Arithmetic mean trough plasma concentration, 300 mg BID vs 480 mg QD",[2]; C1D28,3.2 fold
same,Accumulation following multiple doses,[2]; Day 28 vs Day 1,little accumulation
